Test results: patent publication US20090106856A1, “Selection System for Wheat” (BASF PLANT SCIENCE GMBH, priority 2005, published 2009)

Key:
wheat immature embryos = test: Killing curve: in vitro germination of immature embryos and seedling growth; assay type: in vivo, Triticum aestivum
Method: In order to establish effective concentrations of D-serine and D-alanine on inhibiting growth of tissue cultured wheat cells, a bioassay system using immature embryos was applied. Immature embryos 2 mm in length were dissected onto germination medium with the selection agents, and incubated at 27° C. in light. The number of germinated embryos with well-developed shoots and brunched shoots were scored after 14 days.
Immature embryos 2 mm in size were isolated from the sterilized caryopses. The embryos were cultured on PAW-5 hormone free medium for germination in dark. Seedlings growth on D-amino acid selection was observed after 2 weeks. Most of the embryos germinated but the seedlings growth was inhibited when roots emerge and the uptake of the selection compound was direct from the medium. The Lethal Dose (LD 100) for seedlings germination and growth was 1 mM concentration of both D-amino acids tested (Table 6). Seedlings derived from embryos isolated from the immature caryopsis without endosperms were susceptible to the selection in concentration higher than 1 mM (FIG. 8).

wheat callus = test: Killing curve: callus growth and regeneration under constant selection pressure; assay type: cell-based, Triticum aestivum
Method: To define the sensitivity of wheat tissues during transformation when D-Serine and D-Alanine are present as selection agents regeneration experiments with immature embryos were designed. Immature embryos were immersed in PAWinf medium and subjected to all steps of callus induction, callus maintaining and regeneration in transformation protocol above.
Sensitivity of callus tissue under constant selection pressure were evaluated using range of concentrations: 0.5 mM, 1 mM, 3 mM, 5 mM, 10 mM, 25 mM, 50 mM. Experiments were performed in triplicates. Percentage of embryos forming embryos-genic callus was scored on PAW-4 regeneration medium. At the end of shoots elongation regeneration capacity of the calluses was scored as calluses regenerating shoots and number of shoots per callus.
Range of the tested concentrations 0.5-50 mM D-ser and D-ala are evaluated in replicating regeneration experiments. The effect of selective compounds is estimated during callus growth and shoots formation following transformation procedure on medium with D-serine and D-alanine (Table 4).

[1] = tested on: control seedlings (wheat); test: Spraying of seedlings with D-serine; assay type: in vivo, Triticum aestivum; conditions: 5 days old control seedlings; 50-300 mM
Text: Unlike Arabidopsis (Ericson et al. 2004a), spraying of 5 days old control and trans-genic seedlings with D-serine was not efficient in wheat. […] Watering of the plants was also not sufficient. Since the uptake, mobility in soil and detoxification by microorganisms are all potential barriers for D-serine in the soil, the expectation of in soil selection seems bleak. Therefore, that the transgenic plants will use the products from detoxification of D-serine as an additional nitrogen supply was not fulfilled in soil.

[2] = tested on: wheat variety Canon immature embryos / embryogenic callus; test: Agrobacterium-mediated transformation with dao1 constructs and selection of transgenic plants; assay type: cell-based, Triticum aestivum; conditions: 5 mM selection
Method: Explants were washed with PAW-Inf. medium and immersed in the above-described bacterial suspension for 2 h at 26° C. At the end of infection the explants were placed with scutellum side up on PAW-1 medium. The residual bacterial suspension is removed by pipeting out and air-drying of the infected embryos by opening plates for 15 min on the sterile banch. Plates were sealed with Parafilm and placed in thermostat at 26° C. in the dark for 5-6 days co-cultivation.
After co-cultivation period the explants were washed with sterile water and 500 mg/L Cefotaxime and filter paper dried before being transferred to PAW-2 callus induction-recovery medium containing 160 mg/l Timentin for 14 days (7 days dark/7 days semi light; 13.2 μmol m^−2s^−1). Explants with embryogenic callus were subculture to PAW-2 callus-proliferation medium containing 160 mg/l Timentin and corresponding selection 5 mM D-serine or 5 mM D-alanine or 3 mg/l bialaphos. In some experiments the selection on D-amino acids was starting on PAW-2 callus induction medium 0, 7, 14 and 21 days after co cultivation. Embryogenic callus was subculture twice on fresh selective medium for callus maintaining and regeneration on PAW-4 medium with corresponding selection. Cultures were maintained at 23° C. on light 60.2 μmol m^−2s^−1. Regenerated shoots were subculture to PAW-5 hormone free medium with corresponding selection (5 mM D-serine or 5 mM D-alanine or 3 mg/l bialaphos) for further growth and rooting. All media used in the transformation experiments were filter sterilized and are listed in above. After analyses transgenic plants were transferred to soil and placed for further growth in greenhouse. 1.4 Molecular and expression studies of the transgenic plants
Freshly isolated immature embryos from Canon were inoculated with Agrobacterium. In all experiments Agrobacterium tumefactions super binary vector system based on LBA4404 (pSB1) was used. The constructs pRLM205 containing the original dao1 gene and pRLM226 carrying modified Daol. Both constructs contain gusINT reporter marker gene (FIGS. 3, I and II). Following co cultivation the explants were transferred on callus induction PAW-2 selection free medium containing 160 mg/l Timentin to inhibit bacterial growth for 14 days. For selection embryogenic callus was transferred to PAW-2 selection medium containing 5 mM D-serine or 5 mM D-alanine respectively. Furthermore calli were sub cultured to fresh corresponding selection PAW-2 medium for maintaining. Embryogenic calli were trans-ferred on PAW-4 selection medium for regeneration 5-6 weeks after transformation. The emerging plantlets were further grown and rooted on PAW-5 hormone free selection medium. Well-developed and rooted on selection putative transgenic regenerants were selected in vitro within. When D-alanine was used as selection compound similar effects in callus growth, shoots regeneration and rooting of transgenic plants or non transgenic escapes selected on D-serine was observed. Both selection agents resulted with 1.1% to 1.2% transformation efficiency and no escape rate (Table 9).

Structure (SMILES): N[C@H](CO)C(=O)O [D-serine]
- In vitro germination, Immature Embryos (%) (wheat immature embryos; Bobwhite, 0.5 mM): 46%
- In vitro germination, Immature Embryos (%) (wheat immature embryos; Bobwhite, 1 mM): 0%
- In vitro germination, Immature Embryos (%) (wheat immature embryos; Bobwhite, 5 mM): 0%
- In vitro germination, Immature Embryos (%) (wheat immature embryos; Bobwhite, 10 mM): 0%
- In vitro germination, Immature Embryos (%) (wheat immature embryos; Canon, 0.5 mM): 34%
- In vitro germination, Immature Embryos (%) (wheat immature embryos; Canon, 1 mM): 0%
- In vitro germination, Immature Embryos (%) (wheat immature embryos; Canon, 5 mM): 0%
- In vitro germination, Immature Embryos (%) (wheat immature embryos; Canon, 10 mM): 0%
- regeneration capacity of the calli measured as number of regenerants per callus line (wheat callus; 0.5 mM): clear increase
- number of calli regenerating plants reduced (wheat callus; 3 mM): 50%
- Regeneration capacity of the calli reduced (wheat callus; 5 mM): 70%
- Regenerated Embryogenic Lines (%) (wheat callus; Bobwhite, 0.5 mM): 83%
- Regenerated Embryogenic Lines (%) (wheat callus; Bobwhite, 3 mM): 57%
- Regenerated Embryogenic Lines (%) (wheat callus; Bobwhite, 5 mM): 32.5%
- Regenerated Embryogenic Lines (%) (wheat callus; Bobwhite, 10 mM): 10%
- Regenerated Embryogenic Lines (%) (wheat callus; Bobwhite, 15 mM): 6%
- Regenerated Embryogenic Lines (%) (wheat callus; Bobwhite, 25 mM): 0%
- Regenerated Embryogenic Lines (%) (wheat callus; Bobwhite, 50 mM): 0%
- Regenerated Embryogenic Lines (%) (wheat callus; Canon, 0.5 mM): 84%
- Regenerated Embryogenic Lines (%) (wheat callus; Canon, 3 mM): 56%
- Regenerated Embryogenic Lines (%) (wheat callus; Canon, 5 mM): 23%
- Regenerated Embryogenic Lines (%) (wheat callus; Canon, 10 mM): 6%
- Regenerated Embryogenic Lines (%) (wheat callus; Canon, 15 mM): 3%
- Regenerated Embryogenic Lines (%) (wheat callus; Canon, 25 mM): 0%
- Regenerated Embryogenic Lines (%) (wheat callus; Canon, 50 mM): 0%
- lethal dose (LD 100) for regeneration response of callus (wheat callus; tested in both varieties): 25 mM
- toxicity symptoms after spraying [1]: not sufficient to elicit toxicity symptoms
- ER (%) Escape Rate ([2]; pRLM205 (dao1 original)): 0%
- TE (%) Transformation Efficiency ([2]; pRLM205 (dao1 original)): 1.1%
- ER (%) Escape Rate ([2]; pRLM226 (dao1/ko modified)): 0%
- TE (%) Transformation Efficiency ([2]; pRLM226 (dao1/ko modified)): 0.72%
